Earlier results as cited in patent US20220056157A1, “PROCESS FOR FRACTIONATING AN ESTERIFIED CELLULOSE ETHER” (DOW GLOBAL TECHNOLOGIES LLC, priority 2015, published 2022).
Converted amounts (≈) assume the structure as drawn.

SMILES: CCOC(=O)N1c2ccc(C(F)(F)F)cc2[C@@H](N(Cc2cc(C(F)(F)F)cc(C(F)(F)F)c2)C(=O)OC)C[C@H]1CC [Torcetrapib]
- water solubility: 0.13 ng/mL (≈ 0.216 nM)
